Data reported in the OPERA property sets (Mansouri et al. 2018).

Settings: for log10 BCF / log10 biotransformation half-life (days): fish

SMILES | boiling point [°C] | melting point [°C] | other results
CCC(=O)CC(C)C | 135 | – | –
O=[N+]([O-])c1ccc2ncccc2c1 | – | 154 | –
COc1cccc(N(C)C(=S)Oc2cccc(C(C)(C)C)c2)n1 | – | 86 | –
Clc1ccc(-c2ccc(Cl)cc2)cc1 | 317 | 149 | log10 Henry constant (atm·m³/mol): -3.7; log10 Koa: 7.68; log10 vapour pressure (mmHg): -3.27
CNC(=O)Oc1cccc2ccccc12 | 315 | 145 | log10 Koc (L/kg): 2.4; log10 vapour pressure (mmHg): -5.87; ready biodegradability: readily biodegradable; log10 BCF: 0.95; log10 biotransformation half-life (days): -1.18
O=[N+]([O-])c1cc(Cl)ccc1Cl | 267 | 56 | log10 Henry constant (atm·m³/mol): -4.92; ready biodegradability: not readily biodegradable; log10 BCF: 2.05; log10 biotransformation half-life (days): 0.56
Nc1ccc(S(=O)(=O)Nc2cnccn2)cc1 | – | 251 | –
CN(C)c1ccc(C(O)(c2ccccc2)c2ccc(N(C)C)cc2)cc1 | – | 113 | –
CC(=O)Oc1cc(C(C)C)c(OCCN(C)C)cc1C | – | 144 | –
Fc1cccnc1 | 108 | – | –
NCc1cc(O)no1 | – | 175 | –
C[C@H](NC(=O)[C@H](C)NC(=O)[C@@H](N)CCP(C)(=O)O)C(=O)[O-].[Na+] | – | 160 | –
CCCCCCCCCCOC(=O)c1ccccc1C(=O)OCCCCCC | – | -4 | –
C=CC(=O)OCC(CC)CC | – | -70 | log10 vapour pressure (mmHg): 0.23
O=C1CCCCCN1 | 270 | 69.3 | log10 vapour pressure (mmHg): -2.8; ready biodegradability: readily biodegradable
Nc1cccc2c1Cc1ccccc1-2 | – | 126 | –
Cc1cc(-c2ccc(N)c(C)c2)ccc1N | 339 | 132 | ready biodegradability: not readily biodegradable; log10 BCF: 1.67
O=C(O)C(F)(F)C(F)(F)F | 96.5 | – | –
CCNC=O | 198 | – | –
N#Cc1ccc2[nH]ccc2c1 | – | 107 | –
Sc1ccccc1Cl | 206 | – | –
O=c1cc(O)c2ccccc2o1 | – | 214 | –
Nc1cc2ccccc2cc1N | – | 199 | –

SMILES | boiling point [°C] | melting point [°C] | other results
CC(=O)O | 118 | 16.6 | log10 Henry constant (atm·m³/mol): -7; log10 vapour pressure (mmHg): 1.2; ready biodegradability: readily biodegradable
O=C(O)[C@@]1(O)CC(O)[C@H](O)[C@H](O)C1 (stereo partly specified) | – | 162 | –
CNC(=O)Nc1ccc(OC)c(Cl)c1 | – | – | log10 Koc (L/kg): 1.84
FC(F)(F)C(F)(F)C(F)(C(F)(F)F)C(F)(F)C(F)(F)F | 58.4 | -115 | –
Cc1cc(Br)ccc1O | 235 | 64.7 | –
C[C@H](O)CCc1ccccc1 | 239 | – | –
CN1CCC(CN2c3ccccc3Sc3ccccc32)C1 (stereo unspecified) | – | 87.5 | –
Cc1c(F)c(F)c(C)c(F)c1F | 144 | 36 | –
CN(C)[C@@H]1C(O)=C(C(N)=O)C(=O)[C@@]2(O)C(O)=C3C(=O)c4c(O)ccc(Cl)c4[C@@](C)(O)[C@H]3C[C@@H]12 | – | 168 | –
Clc1ccc(Br)cc1Cl | 237 | 25 | –
COC(=O)C(C)Oc1ccc(Oc2ccc(Cl)cc2Cl)cc1 (stereo unspecified) | – | 40 | log10 Koc (L/kg): 4.2; log10 vapour pressure (mmHg): -5.46; ready biodegradability: readily biodegradable
C1CCC(CCC2CCCCC2)CC1 | 272 | 11.5 | log10 biotransformation half-life (days): 0.13
O=Cc1cc(O)ccc1[N+](=O)[O-] | – | 167 | –
Clc1nnnn1-c1ccccc1 | – | 123 | –
CCN(C(C)C)C(C)C | 126 | – | –
O=C(CCl)OC(=O)CCl | 203 | 46 | log10 vapour pressure (mmHg): -1.43
O=C1CCCc2ccccc21 | – | 8 | –
O=C(O)CCCCCCC(=O)O | 346 | 144 | log10 vapour pressure (mmHg): -6.54
Nc1c(Br)cc(Br)c2c1C(=O)c1ccccc1C2=O | – | 221 | –
CNC(=O)ON=C(SC)C(=O)N(C)C | – | 101 | log10 Koc (L/kg): 1
CCCCCCCCCCCCCCCCCC(N)=O | – | 109 | –
Cc1ccc(CCc2ccc(C)cc2)cc1 | – | 85 | –
CCOC(=O)c1cccc([N+](=O)[O-])c1 | 297 | 47 | –

SMILES | boiling point [°C] | melting point [°C] | other results
CC1Cc2ccccc2C1 | 195 | – | –
OC[C@H]1O[C@H]1c1ccccc1 | – | 26.5 | –
CC1=C(/C=C/C(C)=C/C=C/C(C)=C/CO)C(C)(C)CCC1 | – | 63.5 | –
CC1=CCC(=O)O1 | – | 18 | –
Nc1ccc(/C=C/c2ccc(N)cc2S(=O)(=O)O)c(S(=O)(=O)O)c1 | – | – | ready biodegradability: not readily biodegradable
CCN(CC)C(=O)C(Cl)=C(C)OP(=O)(OC)OC | – | – | log10 Koc (L/kg): 0.85
CC1(C)C(=O)N(Br)C(=O)N1Cl | – | 164 | –
CCCC(C)(C)CC | 112 | -126 | log10 biodegradation half-life (days): 0.699; log10 vapour pressure (mmHg): 1.46
COC(=O)CCCCl | 175 | – | –
CCC#CCC | 81 | -103 | –
CC1CC(CC2CCC(N)C(C)C2)CCC1N (stereo unspecified) | – | – | ready biodegradability: not readily biodegradable
CC1(C)COC(=O)C1O (stereo unspecified) | – | 92 | ready biodegradability: readily biodegradable
CCCNCCO | 183 | – | –
CC=CC=CCO | – | 30.5 | –
Clc1cccc2cccnc12 | 288 | -20 | –
OCCCO | 214 | -26.7 | log10 vapour pressure (mmHg): -1.36
CCOC(=O)C(Br)C(=O)OCC | – | -54 | –
O=[N+]([O-])c1cccc(CCl)c1 | – | 46 | –
OCC1OC(O)C(O)C(O)C1O (stereo unspecified) | – | – | ready biodegradability: readily biodegradable
c1ccc(CN2CCCCC2)cc1 | 245 | – | –
CCCC(CC)C(C)(C)C (stereo unspecified) | 156 | – | –
